Measurements as given in US11230526B1, “Cylcoalkenyl derivatives useful as agonists of the GPR120 and/or GPR40 receptors” (Janssen Pharmaceutica NV, priority 2018, dated 2022).

Assays:
C57bl/6J Mice = experiment: GPR120 C57bl6 mouse IPGTT; assay type: in vivo; conditions: male C57bl/6J mice, dosed 30 minutes prior to glucose (IP) 1.5 g/kg
Procedure: Male, C57bl/6J Mice were ordered in at 8 weeks of age from Jackson Labs. Individual mice weighed anywhere in the range of 25-30 grams on study day. The mice were fasted, with removal of food occurring at 7 am on the morning of the study. Animals were moved into the room at 10:00 am, to give them time to acclimate. Glucose (insulin syringes) was drawn up either the night before or the morning of the study. Glucose was dosed (IP) at 1.5 g/kg at 7.5 ml/kg (20% glucose straight TEKNOVA, 250 ml sterile bottle w/catalogue number G0525). Test compounds were kept spinning and were only drawn into the syringes prior to study commencement. Animals were bled via tail snip to determine basal glucose levels prior to dosing of treatments. An Ascensia BREEZE Blood Glucose Monitoring System by Bayer (using unique 10-test disks) was used for determining glucose levels. The bleeds started at approximately 12:45 pm and dosing started, at 1-minute intervals, immediately after. All groups were dosed 30 minutes prior to glucose administration at a dose volume of 10 ml/kg (the dose volume was calculated separately for each individual animal). Thirty minutes after the first dose animals were bled again for a second baseline, or T=0, and immediately dosed with glucose via an i.p. injection. The exact dose volume for glucose was also calculated separately for each individual animal. Glucose measurements were taken at −30 min prior to compound dose, at t=0 (immediately prior to glucose dose), and at 15, 30, 45, 60, 90 min post glucose dose.
Glucose values were entered into an Excel sheet and graphed in GraphPad Prism. The following were calculated from Prism: Change from −30 to 0 Baseline Glucose, Raw Glucose AUC −30 to 90 min, Delta Glucose AUC −30 to 90 min, Raw Glucose AUC 0 to 90 min, Delta Glucose AUC 0 to 90 min.

[1] = system: C57B16 mice on a high fat diet; experiment: GPR120 DIO mice OGTT screening; assay type: in vivo, mouse; conditions: DIO mice (60% HFD), glucose AUC −30 to 90 min, % change from vehicle
Procedure: GPR120 DIO Mice OGTT Screening
18-22 week old, C57B16 mice on a high fat diet (60% HFD) for 12-16 weeks (ave. body weight ˜ 37-41 g) were fasted for 6 hr, with removal of food occurring at 7 am on the morning of the study. The animals were sorted into treatment groups the day before the study by body weight. Animals outside the bounds of ˜30-50 g were left out of the study. The animals had been handled and shammed a total of 5-8 days (1-3 days immediately prior to the study). Glucose (in 1 mL syringes) was drawn up the morning of the study. Test compounds were kept spinning and were only drawn into 1 ml syringes prior to study commencement. Animals were bled via tail snip to determine basal glucose levels prior to dosing of treatments. An Ascensia BREEZE Blood Glucose Monitoring System by Bayer was used for determining glucose levels.
Animals were moved into the testing room at ˜9-11 am, to yield them time to acclimate. The bleeds and dosing started at approximately 1 pm in 30-second intervals per animal. All groups were dosed 30 minutes prior to glucose administration at a dose volume of 10 ml/kg (the dose volume was calculated separately for each individual animal). Test compounds were administered at one or more of the following dosages: 0.1 mg/kg, 0.3 mg/kg, 1 mg/kg, 3 mg/kg and 10 mg/kg.
Thirty minutes after the first dose (with test compound) animals were bled again for a second baseline, or T=0, and immediately dosed with glucose (20% solution, TEKNOVA, 250 ml sterile bottle w/catalogue number G0525) via a PO injection. The exact dose volume for glucose was also calculated separately for each individual animal.
Blood glucose was measured at 15, 30, 45, 60, and 90 minutes post-glucose administration via the snipped tail. If an animal reached a value of “HI”, the upper limit of the glucometer (600 mg/dl) was substituted as the blood glucose value and the study was analyzed as normal with no exclusions. If 50% or more of any treatment group reaches a “HI” value at least once, the study was considered invalid and repeated. Glucose values were typed into an EXCEL spreadsheet where they were used to calculate glucose AUC and delta AUC post-compound and post-glucose. The glucose excursion curves and the different versions of the AUC's were graphed in GraphPad Prism 5.
Note: All statistics completed in this study were completed using the statistical software package GraphPad Prism 5. Standard procedures for analyzing data sets from screening GPR120 compounds in DIO mouse OGTT's were as listed here below. In addition to the statistics that were run using GraphPad Prism 5, Microsoft Excel was used to calculate the percent changes in AUC from vehicle groups as detailed below.
Change from −30 to 0 Baseline Glucose, Raw Glucose AUC −30 to 90 min, Delta Glucose AUC −30 to 90 min, Raw Glucose AUC 0 to 90 min, Delta Glucose AUC 0 to 90 min were analyzed using Column Statistics Analysis, with mean values used to calculate % change from the vehicle mean group, as well as mean, SEM and/or % change from vehicle, where appropriate, and using One-Way ANOVA w/a Tukey Post-Test (Comparing All Pairs of Columns) with each treatment group examined to see if it was statistically significant compared to vehicle (*=P<0.05, **=P<0.01, ***=P<0.001).

Compound | C57 IPGTT, Dose Response Results (C57bl/6J Mice; 3 mg/kg) | C57 IPGTT, Dose Response Results (C57bl/6J Mice; 10 mg/kg) | C57 IPGTT, Dose Response Results (C57bl/6J Mice; 30 mg/kg) | C57 IPGTT, Dose Response Results (C57bl/6J Mice; 1 mg/kg) | DIO Lowering (−30 to 90) ([1]; 10 mg/kg) | DIO Lowering (−30 to 90) ([1]; 3 mg/kg)
CCc1ccc(C2=C(COc3ccc(CCC(=O)O)c(F)c3F)CCC2)cc1 [Compound 25, 3-(4-((2-(4-ethylphenyl)cyclopent-1-en-1-yl)methoxy)-2,3-difluorophenyl)Propanoic Acid] | 17% | 22% | 39% | – | – | –
CCc1ccc(C2=C(COc3ccc(CCC(=O)O)c(C)c3C)CCC2)cc1 [Compound 27, 3-(4-((2-(4-ethylphenyl)cyclopent-1-en-1-yl)methoxy)-2,3-dimethylphenyl)Propanoic Acid] | 23% | 37% | – | 15% | – | –
Cc1ccc(C2=C(COc3ccc(CCC(=O)O)c(C)c3C)CCC2)cc1 [Compound 52, 3-[2,3-dimethyl-4-[[2-(p-tolyl)cyclopenten-1-yl]methoxy]phenyl]Propanoic Acid] | 11% | 30% | 92% | – | −86% | –
Cc1cc(CCC(=O)O)ccc1OCC1=C(c2ccc(Cl)cc2)CCC1 [Compound 62, 3-[4-[[2-(4-chlorophenyl)cyclopenten-1-yl]methoxy]-3-methyl-phenyl]Propanoic Acid] | 35% | 56% | – | 10% | – | –
Cc1ccc(C2=C(COc3ccc(CCC(=O)O)c(C)c3C)CCC2)cc1F [Compound 80, 3-(4-((2-(3-fluoro-4-methylphenyl)cyclopent-1-en-1-yl)methoxy)-2,3-dimethylphenyl)Propanoic Acid] | 10% | 55% | 81% | – | −60% | −33%
Cc1ccc(C2=C(COc3ccc(CCC(=O)O)c(C)c3C)CCC2)cn1 [Compound 85, 3-(2,3-dimethyl-4-((2-(6-methylpyridin-3-yl)cyclopent-1-en-1-yl)methoxy)phenyl)Propanoic Acid] | 24% | 19% | – | 13% | – | –
Cc1ccc(C2=C(COc3ccc(CCC(=O)O)c(F)c3F)CCC2)cc1 [Compound 94, 3-(2,3-difluoro-4-((2-(p-tolyl)cyclopent-1-en-1-yl)methoxy)phenyl)Propanoic Acid] | – | – | – | – | −11% | –
Cc1c(CCC(=O)O)ccc(OCC2=C(c3ccc(Cl)cc3)CC(F)(F)C2)c1C [Compound 137, 3-[4-[[2-(4-chlorophenyl)-4,4-difluoro-cyclopenten-1-yl]methoxy]-2,3-dimethyl-phenyl]Propanoic Acid] | – | – | – | – | −56% | –
Cc1c(CCC(=O)O)ccc(OCC2=C(c3ccc(Cl)cc3)CCC(F)(F)C2)c1C [Compound 468, 3-[4-[[2-(4-chlorophenyl)-5,5-difluoro-cyclohexen-1-yl]methoxy]-2,3-dimethyl-phenyl]Propanoic Acid] | – | – | – | – | −85% | –
Cc1cc(CCC(=O)O)ccc1OCC1=C(c2ccc(Cl)cc2)CCCC1 [Compound 483, 3-[4-[[2-(4-chlorophenyl)cyclohexen-1-yl]methoxy]-3-methyl-phenyl]Propanoic Acid] | 33% | 51% | – | 23% | – | –
Cc1ccc(C2=C(COc3ccc(CCC(=O)O)c(F)c3F)CCCC2)cc1F [Compound 494, 3-[2,3-difluoro-4-[[2-(3-fluoro-4-methyl-phenyl)cyclohexen-1-yl]methoxy]phenyl]Propanoic Acid] | – | – | – | – | −28% | –
